Data from US8629157B2, “Pyrrolidine compounds which modulate the CB2 receptor” (Boehringer Ingelheim International GmbH, priority 2009, dated 2014).

Molecular target: human CB2R (Homo sapiens, UniProt P34972)
Assay: CB2R mediated modulation of cAMP synthesis
Format: cell-based
Conditions: not given
Method in brief: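 CHO cells expressing human CB2R were treated 30 min at 37° C. with compounds in buffer containing 1 mM IBMX, 0.25% BSA and 10 uM forskolin; cAMP in lysates was measured by DiscoverX-XS kit.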

Chain of human CB2R (P34972 whole entry): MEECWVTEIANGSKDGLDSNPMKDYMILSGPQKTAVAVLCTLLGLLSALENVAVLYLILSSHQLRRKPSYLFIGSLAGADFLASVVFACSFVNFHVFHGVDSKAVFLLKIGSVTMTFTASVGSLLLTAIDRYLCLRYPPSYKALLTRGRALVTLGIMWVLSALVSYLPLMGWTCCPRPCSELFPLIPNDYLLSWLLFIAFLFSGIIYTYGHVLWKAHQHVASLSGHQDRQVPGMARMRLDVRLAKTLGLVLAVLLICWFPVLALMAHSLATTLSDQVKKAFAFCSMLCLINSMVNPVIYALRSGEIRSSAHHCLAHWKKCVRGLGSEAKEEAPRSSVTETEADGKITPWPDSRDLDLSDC

Q: For `CC(C)(C)c1nnc(NC(=O)[C@@H]2CCCN2CCCO)s1` [(S)-1-(3-Hydroxy-propyl)-pyrrolidine-2-carboxylic acid (5-tert-butyl-1,3,4-thiadiazol-2-yl)-amide], which EC50 is on record?
A: 320 nM

Q: For `CC(C)N1CCCC1C(=O)Nc1cc(C(C)(C)C)on1` (centres unmarked) [1-isopropyl-pyrrolidine-2-carboxylic acid (5-tert-butyl-isoxazol-3-yl)-amide], which EC50 is on record?
A: 30.3 nM

Q: How did the EC50 turn out when `O=C(Nc1ccc(C(F)(F)F)cn1)[C@@H]1CCCN1c1ccc(Cl)cc1` [(S)-1-(4-Chloro-phenyl)-pyrrolidine-2-carboxylic acid (5-trifluoromethyl-pyridin-2-yl)-amide] was run?
A: 35.1 nM

Q: `CC(C)(C)c1cc(NC(=O)[C@@H]2CCCN2Cc2ccc(F)cc2)on1` [(S)-1-(4-Fluoro-benzyl)-pyrrolidine-2-carboxylic acid (3-tert-butyl-isoxazol-5-yl)-amide] was tested. Which EC50 did it give?
A: 0.747 nM

Q: How did the EC50 turn out when `CC(C)(C)SCCNC(=O)[C@@H]1CCCN1c1ccc(Cl)cc1` [(S)-1-(4-Chloro-phenyl)-pyrrolidine-2-carboxylic acid (2-tert-butylsulfanyl-ethyl)-amide] was run?
A: 2.61 nM

Q: For `CC(C)(C)c1cc(NC(=O)[C@@H]2CCCN2c2ncc(C(F)(F)F)cc2Cl)no1` [(S)-1-(3-Chloro-5-trifluoromethyl-pyridin-2-yl)-pyrrolidine-2-carboxylic acid (5-tert-butyl-isoxazol-3-yl)-amide], which EC50 is on record?
A: 0.08 nM

Q: For `CC(C)(C)c1cc(NC(=O)[C@@H]2CCCN2CC2CCCCC2)on1` [(S)-1-Cyclohexylmethyl-pyrrolidine-2-carboxylic acid (3-tert-butyl-isoxazol-5-yl)-amide], which EC50 is on record?
A: 0.079 nM

Q: Which EC50 does the source give for `CC(C)(C)c1csc(NC(=O)[C@@H]2CCCN2c2ccc(Cl)cc2)n1` [(S)-1-(4-Chloro-phenyl)-pyrrolidine-2-carboxylic acid (4-tert-butyl-thiazol-2-yl)-amide] here?
A: 30.1 nM

Q: How did the EC50 turn out when `CC(Cc1ccc(Cl)cc1)NC(=O)[C@@H]1CCCN1c1ccc(Cl)cc1` (stereo partly drawn) [(S)-1-(4-Chloro-phenyl)-pyrrolidine-2-carboxylic acid [2-(4-chloro-phenyl)-1-methyl-ethyl]-amide] was run?
A: 270 nM

Q: For `CC(C)(C)c1cc(NC(=O)[C@@H]2CCC(=O)N2c2cc(F)c(F)c(F)c2)on1` [(S)-5-Oxo-1-(3,4,5-trifluoro-phenyl)-pyrrolidine-2-carboxylic acid (3-tert-butyl-isoxazol-5-yl)-amide], which EC50 is on record?
A: 80 nM

Q: How did the EC50 turn out when `CC(C)(CO)c1cc(NC(=O)[C@@H]2CCCN2c2ccc(Cl)cc2)on1` [(S)-1-(4-Chloro-phenyl)-pyrrolidine-2-carboxylic acid [3-(2-hydroxy-1,1-dimethyl-ethyl)-isoxazol-5-yl]-amide] was run?
A: 0.378 nM

Q: Which EC50 does the source give for `CC(C)(C)c1cc(NC(=O)[C@@H]2C[C@H](O)CN2c2ccc(C(F)(F)F)cn2)no1` [(2S,4S)-4-Hydroxy-1-(5-trifluoromethyl-pyridin-2-yl)-pyrrolidine-2-carboxylic acid (5-tert-butyl-isoxazol-3-yl)-amide] here?
A: 27.9 nM

Q: Which EC50 does the source give for `CC(C)(C)c1nnc(NC(=O)[C@@H]2CCCN2C(=O)N2CCS(=O)(=O)CC2)s1` [(S)-1-(1,1-Dioxo-1l^6-thiomorpholine-4-carbonyl)-pyrrolidine-2-carboxylic acid (5-tert-butyl-1,3,4-thiadiazol-2-yl)-amide] here?
A: 436 nM

Q: Which EC50 does the source give for `O=C(Nc1nc(-c2ccc(Cl)cc2)cs1)[C@@H]1C[C@@H](O)CN1CC1CCOCC1` [(2S,4R)-4-Hydroxy-1-(tetrahydro-pyran-4-ylmethyl)-pyrrolidine-2-carboxylic acid [4-(4-chloro-phenyl)-thiazol-2-yl]-amide] here?
A: 71.2 nM

Q: With `O=C(Nc1ccc(F)c(C(F)(F)F)c1)[C@@H]1CCCN1c1ccc(Cl)cc1` [(S)-1-(4-Chloro-phenyl)-pyrrolidine-2-carboxylic acid (4-fluoro-3-trifluoromethyl-phenyl)-amide] as the compound, how does the EC50 read?
A: 19.1 nM

Q: For `CC(C)(C)c1cc(NC(=O)[C@@H]2C[C@@H](O)CN2C2CCCC2)no1` [(2S,4R)-1-Cyclopentyl-4-hydroxy-pyrrolidine-2-carboxylic acid (5-tert-butyl-isoxazol-3-yl)-amide], which EC50 is on record?
A: 23.2 nM

Q: With `O=C(Nc1ccc(C(F)(F)F)cn1)[C@@H]1CCCN1CC1CCOCC1` [(S)-1-(Tetrahydro-pyran-4-ylmethyl)-pyrrolidine-2-carboxylic acid (5-trifluoromethyl-pyridin-2-yl)-amide] as the compound, how does the EC50 read?
A: 212 nM

Q: How did the EC50 turn out when `CC(C)(C)c1cc(NC(=O)[C@@H]2CCCN2CCCO)on1` [(S)-1-(3-Hydroxy-propyl)-pyrrolidine-2-carboxylic acid (3-tert-butyl-isoxazol-5-yl)-amide] was run?
A: 28.6 nM

Q: With `CC(C)(C)c1cc(NC(=O)[C@@H]2CCCN2CC2CCOCC2)on1` [(S)-1-(Tetrahydro-pyran-4-ylmethyl)-pyrrolidine-2-carboxylic acid (3-tert-butyl-isoxazol-5-yl)-amide] as the compound, how does the EC50 read?
A: 0.438 nM

Q: How did the EC50 turn out when `O=C(Nc1nc(C2CC2)cs1)[C@@H]1CCCN1c1ccc(Cl)cc1` [(S)-1-(4-Chloro-phenyl)-pyrrolidine-2-carboxylic acid (4-cyclopropyl-thiazol-2-yl)-amide] was run?
A: 36.1 nM

Q: Which EC50 does the source give for `CC(C)N1C[C@@H](O)C[C@H]1C(=O)Nc1cc(C(C)(C)C)no1` [(2S,4S)-4-Hydroxy-1-isopropyl-pyrrolidine-2-carboxylic acid (3-tert-butyl-isoxazol-5-yl)-amide] here?
A: 421 nM

Q: `COCC(C)(C)c1cc(NC(=O)[C@@H]2C[C@@H](O)CN2c2ccc(Cl)cc2)on1` [(2S,4R)-1-(4-Chloro-phenyl)-4-hydroxy-pyrrolidine-2-carboxylic acid [3-(2-methoxy-1,1-dimethyl-ethyl)-isoxazol-5-yl]-amide] was tested. Which EC50 did it give?
A: 87 nM

Q: Which EC50 does the source give for `CC(C)(C)c1csc(NC(=O)[C@@H]2CCCN2c2ncc(C(F)(F)F)cc2Cl)n1` [(S)-1-(3-Chloro-5-trifluoromethyl-pyridin-2-yl)-pyrrolidine-2-carboxylic acid (4-tert-butyl-thiazol-2-yl)-amide] here?
A: 1.95 nM

Q: With `CC(C)(C)c1cc(NC(=O)[C@]2(C)CCCN2c2ccc(C(F)(F)F)cn2)no1` [(S)-2-Methyl-1-(5-trifluoromethyl-pyridin-2-yl)-pyrrolidine-2-carboxylic acid (5-tert-butyl-isoxazol-3-yl)-amide] as the compound, how does the EC50 read?
A: 0.015 nM

Q: How did the EC50 turn out when `CC(C)(C)c1cc(NC(=O)[C@@H]2CCC(=O)N2c2ccc(OC(F)(F)F)cc2)no1` [(S)-5-Oxo-1-(4-trifluoromethoxy-phenyl)-pyrrolidine-2-carboxylic acid (5-tert-butyl-isoxazol-3-yl)-amide] was run?
A: 132 nM

Q: For `CC(C)(C)c1cc(NC(=O)[C@@H]2CCCN2c2ncc(C(F)(F)F)cc2Cl)on1` [(S)-1-(3-Chloro-5-trifluoromethyl-pyridin-2-yl)-pyrrolidine-2-carboxylic acid (3-tert-butyl-isoxazol-5-yl)-amide], which EC50 is on record?
A: 0.055 nM

Q: Which EC50 does the source give for `CC(C)(C)c1cc(NC(=O)[C@@H]2CCC(=O)N2c2ccc(F)cc2)no1` [(S)-1-(4-fluoro-phenyl)-5-oxo-pyrrolidine-2-carboxylic acid (5-tert-butyl-isoxazol-3-yl)-amide] here?
A: 35.7 nM

Same assay, conditions: CHO cells expressing human CB2R; inhibition of forskolin-stimulated cAMP synthesis; mean; read-out: CB2 CAMP @ EC50 nM (mean)

Q: For `Cc1ccc(N2C(=O)CC[C@H]2C(=O)Nc2cc(C(C)(C)C)on2)cc1Cl` [(S)-l-(3-Chloro-4-methyl-phenyl)-5-oxo-pyrrolidine-2-carboxylic acid (5-tert-butyl-isoxazol-3-yl)-amide], which EC50 is on record?
A: 333 nM

Q: `Cc1nonc1CNC(=O)[C@@H]1CCCN1c1ccc(Cl)cc1` [(S)-1-(4-Chloro-phenyl)-pyrrolidine-2-carboxylic acid (4-methyl-furazan-3-ylmethyl)-amide] was tested. Which EC50 did it give?
A: 498 nM
